Results taken from PubChem BioAssay (NCI).
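Results reflect a 48-hour exposure of cells in 96-well plates to compound at five concentrations. GI50: concentration for 50% inhibition of growth. At the TGI there is no net growth.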

Legend:
Assay in all cases: NCI-60 cell line screen, 48 h
HCC-2998 colon = system: HCC-2998 colon
SNB-19 CNS = system: SNB-19 CNS
A549 NSCLC = system: A549 NSCLC
SK-MEL-2 melanoma = system: SK-MEL-2 melanoma
MCF7 breast = system: MCF7 breast
LOX IMVI melanoma = system: LOX IMVI melanoma
SR leukemia = system: SR leukemia
SW-620 colon = system: SW-620 colon
COLO 205 colon = system: COLO 205 colon
HCT-116 colon = system: HCT-116 colon
U251 CNS = system: U251 CNS
HT29 colon = system: HT29 colon
SF-295 CNS = system: SF-295 CNS
NCI-H23 lung = system: NCI-H23 lung
HCT-15 colon = system: HCT-15 colon
OVCAR-3 ovarian = system: OVCAR-3 ovarian
MALME-3M melanoma = system: MALME-3M melanoma
KM12 colon = system: KM12 colon
NCI/ADR-RES ovarian = system: NCI/ADR-RES ovarian
SF-539 CNS = system: SF-539 CNS
UACC-257 melanoma = system: UACC-257 melanoma
786-0 renal = system: 786-0 renal
MDA-MB-435 = system: MDA-MB-435
SF-268 CNS = system: SF-268 CNS
SK-MEL-28 melanoma = system: SK-MEL-28 melanoma
HOP-62 NSCLC = system: HOP-62 NSCLC
IGROV1 ovarian = system: IGROV1 ovarian
NCI-H522 lung = system: NCI-H522 lung
PC-3 prostate = system: PC-3 prostate
HL-60(TB) leukemia = system: HL-60(TB) leukemia
OVCAR-8 ovarian = system: OVCAR-8 ovarian
UACC-62 melanoma = system: UACC-62 melanoma
HOP-92 NSCLC = system: HOP-92 NSCLC
HS 578T breast = system: HS 578T breast
ACHN renal = system: ACHN renal
SK-OV-3 ovarian = system: SK-OV-3 ovarian
RPMI-8226 leukemia = system: RPMI-8226 leukemia
NCI-H460 lung = system: NCI-H460 lung
CAKI-1 renal = system: CAKI-1 renal
OVCAR-4 ovarian = system: OVCAR-4 ovarian
BT-549 breast = system: BT-549 breast
UO-31 renal = system: UO-31 renal
MDA-MB-231 breast = system: MDA-MB-231 breast
RXF 393 renal = system: RXF 393 renal
SN12C renal = system: SN12C renal
OVCAR-5 ovarian = system: OVCAR-5 ovarian
TK-10 renal = system: TK-10 renal
SK-MEL-5 melanoma = system: SK-MEL-5 melanoma
CCRF-CEM leukemia = system: CCRF-CEM leukemia
K-562 leukemia = system: K-562 leukemia
EKVX NSCLC = system: EKVX NSCLC
MOLT-4 leukemia = system: MOLT-4 leukemia
A498 renal = system: A498 renal
MDA-MB-468 breast = system: MDA-MB-468 breast
T-47D breast = system: T-47D breast
M14 melanoma = system: M14 melanoma
NCI-H226 lung = system: NCI-H226 lung
DU-145 prostate = system: DU-145 prostate

O=C(NNc1nc2cc(F)ccc2n2c(CN3CCCCC3)ccc12)c1cnccn1
GI50 (HCC-2998 colon): 1140 nM | TGI (HCC-2998 colon): 11600 nM | GI50 (SNB-19 CNS): 1540 nM | TGI (SNB-19 CNS): 12000 nM | GI50 (A549 NSCLC): 1220 nM | TGI (A549 NSCLC): 11800 nM | GI50 (SK-MEL-2 melanoma): 2130 nM | TGI (SK-MEL-2 melanoma): 12400 nM | GI50 (MCF7 breast): 1580 nM | TGI (MCF7 breast): 10300 nM | GI50 (LOX IMVI melanoma): 682 nM | TGI (LOX IMVI melanoma): 2880 nM | GI50 (SR leukemia): 288 nM | TGI (SR leukemia): 2210 nM | GI50 (SW-620 colon): 1070 nM | TGI (SW-620 colon): 10700 nM | GI50 (COLO 205 colon): 1160 nM | TGI (COLO 205 colon): 9740 nM | GI50 (HCT-116 colon): 701 nM | TGI (HCT-116 colon): 12500 nM | GI50 (U251 CNS): 967 nM | TGI (U251 CNS): 11700 nM | GI50 (HT29 colon): 474 nM | TGI (HT29 colon): 13300 nM | GI50 (SF-295 CNS): 599 nM | TGI (SF-295 CNS): 6270 nM | GI50 (NCI-H23 lung): 1390 nM | TGI (NCI-H23 lung): 3430 nM | GI50 (HCT-15 colon): 190 nM | TGI (HCT-15 colon): 12800 nM | GI50 (OVCAR-3 ovarian): 2040 nM | TGI (OVCAR-3 ovarian): 16000 nM | GI50 (MALME-3M melanoma): 2310 nM | TGI (MALME-3M melanoma): 8940 nM | GI50 (KM12 colon): 1170 nM | TGI (KM12 colon): 12400 nM | GI50 (NCI/ADR-RES ovarian): 514 nM | TGI (NCI/ADR-RES ovarian): 2290 nM | GI50 (SF-539 CNS): 1140 nM | TGI (SF-539 CNS): 6940 nM | GI50 (UACC-257 melanoma): 2730 nM | TGI (UACC-257 melanoma): 9770 nM | GI50 (786-0 renal): 1320 nM | TGI (786-0 renal): 4360 nM | GI50 (MDA-MB-435): 2740 nM | TGI (MDA-MB-435): 13900 nM | GI50 (SF-268 CNS): 1330 nM | TGI (SF-268 CNS): 11800 nM | GI50 (SK-MEL-28 melanoma): 2700 nM | TGI (SK-MEL-28 melanoma): 13300 nM | GI50 (HOP-62 NSCLC): 1140 nM | TGI (HOP-62 NSCLC): 7910 nM | GI50 (IGROV1 ovarian): 894 nM | TGI (IGROV1 ovarian): 5060 nM | GI50 (NCI-H522 lung): 1360 nM | TGI (NCI-H522 lung): 5100 nM | GI50 (PC-3 prostate): 1220 nM | TGI (PC-3 prostate): 6720 nM | GI50 (HL-60(TB) leukemia): 340 nM | TGI (HL-60(TB) leukemia): 1640 nM | GI50 (OVCAR-8 ovarian): 944 nM | TGI (OVCAR-8 ovarian): 5270 nM | GI50 (UACC-62 melanoma): 1280 nM | TGI (UACC-62 melanoma): 3240 nM | GI50 (HOP-92 NSCLC): 1190 nM | TGI (HOP-92 NSCLC): 5370 nM | GI50 (HS 578T breast): 2620 nM | TGI (HS 578T breast): 18000 nM | GI50 (ACHN renal): 763 nM | TGI (ACHN renal): 7910 nM | GI50 (SK-OV-3 ovarian): 1170 nM | TGI (SK-OV-3 ovarian): 10900 nM | GI50 (RPMI-8226 leukemia): 953 nM | TGI (RPMI-8226 leukemia): 12100 nM | GI50 (NCI-H460 lung): 392 nM | TGI (NCI-H460 lung): 3150 nM | GI50 (CAKI-1 renal): 918 nM | TGI (CAKI-1 renal): 11000 nM | GI50 (OVCAR-4 ovarian): 842 nM | TGI (OVCAR-4 ovarian): 4550 nM | GI50 (BT-549 breast): 1570 nM | TGI (BT-549 breast): 12700 nM | GI50 (UO-31 renal): 330 nM | TGI (UO-31 renal): 4910 nM | GI50 (MDA-MB-231 breast): 1260 nM | TGI (MDA-MB-231 breast): 10400 nM | GI50 (RXF 393 renal): 1690 nM | TGI (RXF 393 renal): 5620 nM | GI50 (SN12C renal): 1290 nM | TGI (SN12C renal): 8500 nM | GI50 (OVCAR-5 ovarian): 1350 nM | TGI (OVCAR-5 ovarian): 7230 nM | GI50 (TK-10 renal): 969 nM | TGI (TK-10 renal): 10200 nM | GI50 (SK-MEL-5 melanoma): 1810 nM | TGI (SK-MEL-5 melanoma): 8100 nM | GI50 (CCRF-CEM leukemia): 462 nM | TGI (CCRF-CEM leukemia): 3170 nM | GI50 (K-562 leukemia): 1220 nM | TGI (K-562 leukemia): 4580 nM | GI50 (EKVX NSCLC): 525 nM | TGI (EKVX NSCLC): 3760 nM | GI50 (MOLT-4 leukemia): 388 nM | TGI (MOLT-4 leukemia): 2320 nM | GI50 (A498 renal): 13900 nM | TGI (A498 renal): 26900 nM | GI50 (MDA-MB-468 breast): 1200 nM | TGI (MDA-MB-468 breast): 3100 nM | GI50 (T-47D breast): 2070 nM | TGI (T-47D breast): 10200 nM | GI50 (M14 melanoma): 1490 nM | TGI (M14 melanoma): 5540 nM | GI50 (NCI-H226 lung): 1640 nM | TGI (NCI-H226 lung): 6800 nM | GI50 (DU-145 prostate): 1410 nM | TGI (DU-145 prostate): 11800 nM
